From US7439359B2, “Small molecule compositions for binding to hsp90” (Sloan-Kettering Institute for Cancer Research, priority 2000, dated 2008)
pEC50, pIC50: −log10 of the molar value. Entries after “also recorded” stand apart in the source; their conditions may differ.

Columns and labels:
[1] = system: MCF-7; assay: Growth assay, cell number by coulter counter; format: cell-based, human; conditions: MCF-7, FIG. 14
Method: (§1) Cell cultures of MCF-7, SKBr3 and MDA-MB-468 cells were treated with PU3 at one of several concentrations or a DMSO control to test for the occurrence of antiproliferative effects. FIGS. 14A-C show the results of cell number as a function of time.

[2] = system: SKBr3; assay: Growth assay, cell number by coulter counter; format: cell-based, human; conditions: SKBr3, FIG. 14
Method: as §1

[3] = system: MDA-MB-468; assay: Growth assay, cell number by coulter counter; format: cell-based, human; conditions: MDA-MB-468, FIG. 14
Method: as §1

[4] = system: Raf-1; assay: Raf-1 degradation in SKBr3 cells (immunoblot); format: cell-based, human; conditions: SKBr3, 24 hours, 10-250 μM
Method: PU4 degraded Her2 at concentrations greater than 50 μM and Raf-1 at a concentration of 250 μM.

[5] = system: Her2; assay: Her2 levels in MCF-7 xenograft tumor tissue (immunoblotting); format: in vivo, Mice; conditions: single dose 50, 100 and 500 mg/kg i.p., 12 hours post-treatment
Method: (§2) PU3 was tested for its safety and potency in MCF-7 xenografts. […] Mice with established tumors were treated with a single dose of PU3 at doses of 50, 100 and 500 mg/kg i.p. Control mice were treated with DMSO alone. Mice were sacrificed 12 hours post-treatment. For immunoblotting, tumor tissue was homogenized in 2% SDS lysis buffer (pH 7.4).

[6] = system: estrogen receptor; assay: Estrogen receptor degradation in MCF-7 cells (immunoblot); format: cell-based, human; conditions: MCF-7, 24 hours, 10-250 μM
[7] = biological target: T1, Hsp90alpha (Homo sapiens, UniProt P07900); assay: Solid phase competition assay with GM-beads, Hsp90 alpha immunoblot; format: binding; set-up: purchased Stressgen SPP-770; conditions: competition with immobilized GM; unit inferred; read-out: EC50 Hsp90 α
Method: A test was also designed which allows identification of compounds which interact differentially with Hsp90-alpha and Hsp90-beta. […] An Hsp90 protein preparation containing both the alpha and the beta form is incubated with the support in the presence or absence of a compound to be evaluated. […] After washing, the material bound to the support is eluted and the eluate is separated on an SDS/PAGE gel and visualized by immunoblotting with anti-Hsp90-alpha and anti-Hsp90-beta to determine the amount of material bound. Alternatively, if quantitative amounts of the Hsp90 protein preparation or known ratios of alpha to beta forms of Hsp90 are used in the first instance, the unbound material can be analyzed by a similar technique.
(§3) Protein Assays. […] Antiproliferative index. […] Tissue Culture IC50 Studies. […] Her2 degradation. Total Protein Assays. […] Binding studies. Solid phase competition assays.

[8] = system: Hsp90; assay: Hsp90 levels in MCF-7 cells (Western blotting); format: cell-based, human
Method: (§4) To test the time course of degradation, MCF-7 cells were treated with 100 μM PU3. Aliquots of cells were recovered at 1.5, 3, 6, 12 and 24 hours, and the amount of Her2, Raf-1, Hsp90 and Trap-1 was evaluated.

[9] = system: Trap1; assay: Trap1 levels in MCF-7 cells (Western blotting); format: cell-based, human; conditions: MCF-7, 10-250 μM, 24 hours
[10] = system: Her2, Raf1, Her3, estrogen receptor (ER), Rb, p85 (PI3K), tubulin and actin; assay: Western blot of signaling proteins in SKBr3 and MCF-7 cells (differential degradation); format: cell-based, human
Method: Cultures of SKBr3 and MCF-7 cells were treated with varying concentrations (0, 10, 50 100, or 250 μM) of PU3 for 24 hours. The cells were lysed and levels of Her2, Raf1, Her3, estrogen receptor (ER), p85 (PI3K), tubulin and actin were analyzed by western blotting. Reduction in the amount of those signaling proteins which depend on hsp90 for their function (Her2, Raf1, Her3 and ER) was observed. No effect was observed on PI3K, tubulin or actin, proteins which are involved in other signaling pathways.

[11] = system: MCF-7; assay: Growth inhibition, sulforhodamine B assay; format: cell-based, human; conditions: Homo sapiens, MCF7, 72 hours, unit inferred
Description: as §3

[12] = system: MDA-MB-468; assay: Growth inhibition, sulforhodamine B assay; format: cell-based, human; conditions: Homo sapiens, MDA-MB-468, 72 hours, unit inferred
Description: as §3

[13] = system: MCF-7 cells; assay: Changes in cell morphology; format: cell-based, human; conditions: MCF-7 cells exposed to drug
Description: Drugs may also be assayed based upon observed very characteristic changes in cell morphology. […] The increase in size is mostly due to an abundance in cytoplasm. These morphological changes are characteristic of mature epithelial differentiation and reversal of transformation.

[14] = system: Raf-1; assay: Raf-1 amount in MCF-7 cells, time course; format: cell-based, human; conditions: MCF-7, 100 μM, 1.5-24 hours
Method: as §4

[15] = system: Her2; assay: Her2 total protein degradation in MCF-7 cells (immunoblot);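 note: Her2 levels judged by SDS-PAGE western blot of whole-cell lysates probed with anti-Her2 antibody, compared with DMSO vehicle-treated cells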
[16] = system: PI3 kinase (p85); assay: PI3 kinase (p85) levels in MCF-7 xenograft tumor tissue (immunoblotting); format: in vivo, Mice; conditions: single dose 50, 100 and 500 mg/kg i.p., 12 hours post-treatment
Method: as §2

[17] = system: Hsp70; assay: Hsp70 levels in MCF-7 cells (Western blotting); format: cell-based, human
[18] = biological target: T1, Hsp90alpha; assay: PU3-biotin on Sepharose-Streptavidin beads; format: binding; conditions: immobilized PU3-biotin
Description: (§5) PU3 was linked to Biotin through the middle OH in accordance with the synthetic scheme shown in FIGS. 16A and B. PU3-biotin was immobilized on Sepharose-Streptavidin beads.

[19] = biological target: T2, Trap-1 (Homo sapiens, UniProt Q12931); assay: PU3-biotin on Sepharose-Streptavidin beads; format: binding; conditions: immobilized PU3-biotin
T2 sequence (Q12931 60-704): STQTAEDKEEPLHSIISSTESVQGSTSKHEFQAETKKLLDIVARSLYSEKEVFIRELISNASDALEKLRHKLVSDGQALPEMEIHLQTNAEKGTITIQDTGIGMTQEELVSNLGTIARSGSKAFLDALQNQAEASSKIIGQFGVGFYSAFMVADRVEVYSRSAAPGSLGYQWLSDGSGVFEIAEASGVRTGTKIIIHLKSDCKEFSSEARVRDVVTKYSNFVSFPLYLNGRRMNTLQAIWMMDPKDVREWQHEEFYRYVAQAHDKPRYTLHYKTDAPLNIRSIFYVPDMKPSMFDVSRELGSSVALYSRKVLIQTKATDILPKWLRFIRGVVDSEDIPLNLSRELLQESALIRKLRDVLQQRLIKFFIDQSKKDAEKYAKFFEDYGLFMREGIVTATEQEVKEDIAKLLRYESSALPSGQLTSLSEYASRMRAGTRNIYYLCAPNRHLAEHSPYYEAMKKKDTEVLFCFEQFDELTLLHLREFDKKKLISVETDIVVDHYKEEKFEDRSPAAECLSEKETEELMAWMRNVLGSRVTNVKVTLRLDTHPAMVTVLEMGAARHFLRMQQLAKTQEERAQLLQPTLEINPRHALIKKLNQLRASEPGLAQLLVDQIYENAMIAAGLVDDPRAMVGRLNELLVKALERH
Description: as §5

[20] = Safety in mice with MCF-7 xenografts; format: in vivo; conditions: IP
Method: as §2

[21] = MCF-7, 100 μM, within the 24 hour period
[22] = SKBr3 and MCF-7, 10-250 μM, 24 hours

Compound: CCCCn1c(Cc2cc(OC)c(OC)c(OC)c2)nc2c(N)ncnc21 [PU3]
- cell number as a function of time [1]: clearly inhibits growth
- cell number as a function of time [2]: clearly inhibits growth
- cell number as a function of time [3]: clearly inhibits growth
- Raf-1 degradation [4]: only partial loss of Raf-1 at 250 μM
- Her2 levels in tumor [5]: reduction in Her2 levels
- estrogen receptor degradation [6]: partially degraded estrogen receptor at concentrations over 50 μM; also recorded: dose-dependent degradation
- synthesis of Hsp90 [8, 21]: significant synthesis
- cellular levels of Hsp90 ([8]; MCF-7, 10-250 μM, 24 hours): increases the cellular levels of Hsp90 and Hsp70
- Trap1 level / band recognized by anti-Trap-1 antibody [9]: induces a protein band that migrates more rapidly than Trap-1
- amount of Her2, Raf1, Her3 and ER [10, 22]: Reduction
- amount of PI3K, tubulin or actin [10, 22]: No effect
- Her2 degradation and lower-molecular weight HER-2 band (Example 3 summary) ([10]; cell line not stated): rapid decrease in Her2 levels
- Raf / Her3 degradation (Example 3 summary) ([10]; cell line not stated): less sensitive to PU3, but are degraded at higher concentrations
- pIC50 [11]: 4.30
- pIC50 [12]: 4.21
- cell morphology [13]: flatten, increase in size and have distinct cellular boundaries
- amount of Raf-1 [14]: did not change significantly
- pIC50 ([15]; Homo sapiens, MCF7, read-out: IC50 Her2/MCF-7): 4.26
- Her2 lost ([15]; MCF-7, 100 μM, within 3 hours of administration): more than 50%
- PI3 kinase (p85) levels in tumor [16]: No change
- synthesis of Hsp70 [17, 21]: significant synthesis
- cellular levels of Hsp70 ([17]; MCF-7, 10-250 μM, 24 hours): increases the cellular levels of Hsp90 and Hsp70
- interaction with Hsp90alpha [18]: interaction of PU3 with the Trap-1 and Hsp90alpha
- interaction with Trap-1 [19]: interaction of PU3 with the Trap-1 and Hsp90alpha
- dose administered without significant signs of toxicity [20]: up to 500 mg/kg
